Tests used:
TRPM4 (TRPM4b) [1] = target: T1, TRPM4 (TRPM4b) (Homo sapiens, UniProt Q8TD43, E7K); test: inside-out patch clamp, HEK293, reactivation after desensitization, Hill fit; assay type: cell-based; conditions: read-out: apparent EC50; Kd (abstract)
T1 construct: full-length human TRPM4b CDS subcloned into pcI-neo, expressed in HEK293 cells (original clone in pcDNA4TO-Flag); homotetramer (known biology)

TRPM4 (TRPM4b) [2] = target: T2, TRPM4 (TRPM4b) (Homo sapiens, UniProt Q8TD43); test: as above; assay type: cell-based; conditions: read-out: apparent EC50; Kd (abstract)
T2 construct: full-length human TRPM4b CDS subcloned into pcI-neo, expressed in HEK293 cells (original clone in pcDNA4TO-Flag); homotetramer (known biology)
T2 sequence (Q8TD43 whole entry): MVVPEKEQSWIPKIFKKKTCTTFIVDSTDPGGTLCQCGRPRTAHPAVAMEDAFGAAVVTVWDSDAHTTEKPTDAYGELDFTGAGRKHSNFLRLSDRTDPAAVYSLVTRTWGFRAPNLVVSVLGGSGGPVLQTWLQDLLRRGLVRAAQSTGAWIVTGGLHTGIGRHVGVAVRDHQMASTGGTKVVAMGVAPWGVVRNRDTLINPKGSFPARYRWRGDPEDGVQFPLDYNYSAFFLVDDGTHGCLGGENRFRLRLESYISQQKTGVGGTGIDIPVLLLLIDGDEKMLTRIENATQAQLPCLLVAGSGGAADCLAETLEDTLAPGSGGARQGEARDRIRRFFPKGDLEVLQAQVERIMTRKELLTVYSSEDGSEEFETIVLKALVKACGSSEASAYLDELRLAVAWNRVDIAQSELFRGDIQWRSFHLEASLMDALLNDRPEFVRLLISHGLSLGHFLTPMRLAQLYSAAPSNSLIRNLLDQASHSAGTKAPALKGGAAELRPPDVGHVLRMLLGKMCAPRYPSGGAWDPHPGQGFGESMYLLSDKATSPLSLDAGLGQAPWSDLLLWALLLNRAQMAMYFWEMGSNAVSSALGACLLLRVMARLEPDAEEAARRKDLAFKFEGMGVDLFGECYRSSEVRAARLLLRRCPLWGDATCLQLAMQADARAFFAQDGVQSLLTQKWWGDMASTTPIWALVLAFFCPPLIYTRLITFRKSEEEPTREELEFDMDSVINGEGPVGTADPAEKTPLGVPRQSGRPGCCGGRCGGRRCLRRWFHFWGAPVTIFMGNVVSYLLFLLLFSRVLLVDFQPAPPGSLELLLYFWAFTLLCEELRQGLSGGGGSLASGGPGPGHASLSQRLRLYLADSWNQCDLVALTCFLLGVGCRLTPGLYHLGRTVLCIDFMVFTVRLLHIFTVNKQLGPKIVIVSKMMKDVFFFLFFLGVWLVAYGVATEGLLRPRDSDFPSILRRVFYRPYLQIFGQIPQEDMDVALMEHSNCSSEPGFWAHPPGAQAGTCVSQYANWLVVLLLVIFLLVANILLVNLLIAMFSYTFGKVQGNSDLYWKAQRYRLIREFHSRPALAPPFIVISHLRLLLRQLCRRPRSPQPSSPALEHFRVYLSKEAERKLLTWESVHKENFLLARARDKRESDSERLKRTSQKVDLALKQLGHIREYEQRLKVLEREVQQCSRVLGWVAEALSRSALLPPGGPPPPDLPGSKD

T1 sequence (Q8TD43 whole entry E7K): as the sequence (Q8TD43 whole entry) above, with E7K counted along it

CCCCCCCC(=O)OC[C@H](COP(=O)(O)O[C@@H]1[C@H](O)[C@H](O)[C@@H](OP(=O)(O)O)[C@H](OP(=O)(O)O)[C@H]1O)OC(=O)CCCCCCC [diC8-PI(4,5)P2]
EC50 (TRPM4 (TRPM4b) [1]): 1440 ± 200 nM | EC50 (TRPM4 (TRPM4b) [2]): 2400 ± 230 nM

Reference: PMC8146980, “An Arrhythmic Mutation E7K Facilitates TRPM4 Channel Activation via Enhanced PIP2 Interaction” (Cells, 2021)
